Test system: male ICR mice
Test: Formalin paw test
Assay type: in vivo, mouse
Settings: for Early Phase: early/acute phase (0-10 minutes) after 2% formalin into hind paw; for Late Phase: late/tonic phase (10-35 minutes) after 2% formalin into hind paw
Procedure: One test compound or the vehicle was administered to each mouse in each test group (8 mice per group). Non-fasted male ICR mice weighing 23±3 g were used. Test compounds were administered at a concentration of 30 mg/kg, 100 mg/kg or 200 mg/kg; morphine was administered at a concentration of 10 mg/kg; and acetaminophen was administered at a concentration of >100 mg/kg. The control group received the vehicle (5% DMSO/15% PEG400/10% HPbCD/0.9% Saline). After 10 minutes, a 2% formalin solution (0.02 mL) was injected into one hind paw (sub-plantar) of each mouse. Responses were measured every 5 minutes after the formalin injection for 35 minutes.
The results in Table A are for oral administration; the results in Table B are for intraperitoneal administration; the results in Table C are for intravenous administration. In Tables A, B, and C, ‘A’ designates <70 licks/sec, ‘B’ designates ≥70 licks/sec and <165 licks/sec, and ‘C’ designates ≥165 licks/sec.

[1] = intraperitoneal administration, 30 mg/kg
[2] = intravenous administration, 100 mg/kg

SMILES	Early Phase [1]	Late Phase [1]	other results
Nc1nnc(C(F)(F)F)s1 [Compound 5]	B (‘B’ designates ≥70 licks/sec and <165 licks/sec)	C (‘C’ designates ≥165 licks/sec)	
Cc1nc(CN)cs1 [Compound 14]	B (‘B’ designates ≥70 licks/sec and <165 licks/sec)	C (‘C’ designates ≥165 licks/sec)	
Cc1nc(N)oc1C [Compound 16]	A (‘A’ designates <70 licks/sec)	A (‘A’ designates <70 licks/sec)	
CC(C)(C)c1csc(N)n1 [Compound 10]	A (‘A’ designates <70 licks/sec)	A (‘A’ designates <70 licks/sec)	
CC(=O)Nc1ccc(C(C)(C)C)cc1 [Compound 28]			Early Phase (oral administration, 200 mg/kg): B (‘B’ designates ≥70 licks/sec and <165 licks/sec); Late Phase (oral administration, 200 mg/kg): B (‘B’ designates ≥70 licks/sec and <165 licks/sec)
CC(C)(C)c1csc(CN)n1 [Compound 7]	B (‘B’ designates ≥70 licks/sec and <165 licks/sec)	A (‘A’ designates <70 licks/sec)	
NCc1cccc(C(F)(F)F)n1 [Compound 24]	B (‘B’ designates ≥70 licks/sec and <165 licks/sec)	C (‘C’ designates ≥165 licks/sec)	
NCc1ccc(C(F)(F)F)cc1 [Compound 18]	B (‘B’ designates ≥70 licks/sec and <165 licks/sec)	C (‘C’ designates ≥165 licks/sec)	
CC(C)(C)c1nccc(N)n1 [Compound 19]	B (‘B’ designates ≥70 licks/sec and <165 licks/sec)	C (‘C’ designates ≥165 licks/sec)	
CCn1cc(CN)cn1 [Compound 15]	B (‘B’ designates ≥70 licks/sec and <165 licks/sec)	A (‘A’ designates <70 licks/sec)	
CC(C)(C)c1nnc(N)s1 [Compound 4]	B (‘B’ designates ≥70 licks/sec and <165 licks/sec)	C (‘C’ designates ≥165 licks/sec)	
Cc1cc(CN)nn1C [Compound 17]	B (‘B’ designates ≥70 licks/sec and <165 licks/sec)	B (‘B’ designates ≥70 licks/sec and <165 licks/sec)	
Nc1nccc(C(F)(F)F)n1 [Compound 20]	B (‘B’ designates ≥70 licks/sec and <165 licks/sec)	C (‘C’ designates ≥165 licks/sec)	
CC(C)(C)c1nnc(N)o1 [Compound 6]	B (‘B’ designates ≥70 licks/sec and <165 licks/sec)	C (‘C’ designates ≥165 licks/sec)	
Nc1cccc(C(F)(F)F)n1 [Compound 21]	B (‘B’ designates ≥70 licks/sec and <165 licks/sec)	C (‘C’ designates ≥165 licks/sec)	
NCc1nc(C(F)(F)F)cs1 [Compound 8]	A (‘A’ designates <70 licks/sec)	A (‘A’ designates <70 licks/sec)	
Nc1ncc(C(F)(F)F)cn1 [Compound 22]	B (‘B’ designates ≥70 licks/sec and <165 licks/sec)	C (‘C’ designates ≥165 licks/sec)	
Cc1ncc(CN)s1 [Compound 13]	B (‘B’ designates ≥70 licks/sec and <165 licks/sec)	C (‘C’ designates ≥165 licks/sec)	
CC(C)(C)C(=O)Nc1ccc(O)cc1 [Compound 26]			Early Phase (oral administration, 200 mg/kg): B (‘B’ designates ≥70 licks/sec and <165 licks/sec); Late Phase (oral administration, 200 mg/kg): B (‘B’ designates ≥70 licks/sec and <165 licks/sec)
CC(C)(C)c1nnc(CN)s1 [Compound 3]	A (‘A’ designates <70 licks/sec)	B (‘B’ designates ≥70 licks/sec and <165 licks/sec)	
NCCc1nc(C(F)(F)F)cs1 [Compound 9]	A (‘A’ designates <70 licks/sec)	A (‘A’ designates <70 licks/sec)	
CC(=O)NCc1ccc(C(F)(F)F)cc1 [Compound 27]			Early Phase [2]: A (‘A’ designates <70 licks/sec); Late Phase [2]: A (‘A’ designates <70 licks/sec)
Cc1coc(N)n1 [Compound 1]	B (‘B’ designates ≥70 licks/sec and <165 licks/sec)	C (‘C’ designates ≥165 licks/sec)	
CC(=O)Nc1ccc(C(F)(F)F)cc1 [Compound 29]			Early Phase (oral administration, 200 mg/kg): A (‘A’ designates <70 licks/sec); Late Phase (oral administration, 200 mg/kg): A (‘A’ designates <70 licks/sec)
Nc1nnc(C(F)(F)F)o1 [Compound 2]	B (‘B’ designates ≥70 licks/sec and <165 licks/sec)	C (‘C’ designates ≥165 licks/sec)	
NCCc1ccc(C(F)(F)F)cc1 [Compound 25]	A (‘A’ designates <70 licks/sec)	B (‘B’ designates ≥70 licks/sec and <165 licks/sec)	
